Test results: US20260115170A1, “Method of Ameliorating a Symptom or a Disease in a Human Caused by Fungus” (ISHIHARA SANGYO KAISHA, LTD., priority 2020, published 2026)
≈ marks a conversion by molar mass, not a printed value.

Columns and labels:
[1] = system: Malassezia Nana (CBS95574); assay: Test Example 1-4 antimicrobial activity test, colony formation inhibition rate after 5 minutes contact; assay type: cell-based; settings: contact 5 minutes at 30° C., culturing 5 days
Procedure: Test Microbial Strain: Malassezia Nana (CBS95574)
(§1) The Malassezia microbe cultured at 32° C. for 20 hours in a Sabouraud liquid medium containing Tween80 (polyoxyethylene sorbitan monooleate: manufactured by Kanto Chemical Co., Inc.) (0.05% (v/v)) was recovered by centrifugation (3000 rpm, 5 minutes), washed twice with physiological saline, and then suspended in 10 mL of physiological saline, the resulting suspension was allowed to stand for 15 minutes, and then the supernatant was recovered. […] 100 μL of the microbial liquid resulting from the resuspension was applied to a Sabouraud medium containing Tween80 (0.05% (v/v)) and subjected to culturing at 30° C. for 5 days, then the number of colonies formed there (number of colonies formed in the inventive plot) and the number of colonies in a solvent to which the test compound was not added (the number of colonies formed in the non-agent treated plot) were measured, and the colony formation inhibition rate (%) was determined according to the following expression.

[2] = system: A. Niger (TIMM4968 Strain); assay: Test Example 1-6 antimicrobial activity test, minimum inhibitory concentration; assay type: cell-based; settings: Aspergillus niger, Sabouraud medium, 28° C. for 48 hours
Procedure: (§2) Test Microbial Strains: Aspergillus fumigatus (TIMM0063 Strain), and A. Niger (TIMM4968 Strain) Test method: The Aspergillus microbe was cultured in a PDA medium at 27° C. for 3 days, then spores were collected in physiological saline containing Tween80 (polyoxyethylene sorbitan monooleate: manufactured by Kanto Chemical Co., Inc.) (0.05% (v/v)), and this was filtered through a cell strainer (+40 μm). The spores were recovered from the filtrate by centrifugation (3500 rpm, 5 minutes) and washed twice with physiological saline, and then a spore suspension was prepared (1×10^7 spores/mL). 10 μL of the spore suspension was inoculated into a Sabouraud medium to which compound No. 1 dissolved in DMSO was added to have a predetermined concentration. After culturing at 28° C. for 48 hours, the presence or absence of microbial growth was investigated, and the minimum inhibitory concentration was determined.

[3] = system: Aspergillus fumigatus (TIMM0063 Strain); assay: as above; assay type: cell-based; settings: Sabouraud medium, 28° C. for 48 hours
Procedure: as §2

[4] = system: Cryptococcus neoformans (TIMM1316 Strain); assay: Test Example 1-3 antimicrobial activity test, colony formation; assay type: cell-based; settings: at 20 ppm, Sabouraud medium, 37° C. for 48 hours
Procedure: (§3) Test Microbial Strain: Cryptococcus neoformans (TIMM1316 Strain) Test method: The Cryptococcus microbe cultured in an YPD liquid medium at 37° C. for 20 hours was recovered by centrifugation (3000 rpm, 5 minutes), washed twice with physiological saline, and then suspended in physiological saline, and a microbial liquid was prepared in such a way as to provide 2×10^3 cells/mL. 100 μL of the microbial liquid was applied to a Sabouraud medium to which the test compound dissolved in DMSO was added to have a predetermined concentration. After culturing at 37° C. for 48 hours, the presence or absence of colony formation was investigated.

[5] = system: Malassezia pachydermatis (TIMM10024); assay: Test Example 1-5 antimicrobial activity test, colony formation inhibition rate after 5 minutes contact; assay type: cell-based; settings: contact 5 minutes at 30° C., culturing 5 days
Procedure: Test Microbial Strain: Malassezia pachydermatis (TIMM10024)
as §1, with “ml” for “mL”, “in” for “according to”, “same manner as in Test Example 1-4.” for “following expression.”

[6] = system: Candida glabrata (TIMM6054 Strain); assay: Test Example 1-2 antimicrobial activity test, colony formation; assay type: cell-based; settings: at 200 ppm, YPD medium, 37° C. for 48 hours
Procedure: as §3, with “Candida glabrata (TIMM6054” for “Cryptococcus neoformans (TIMM1316”, “Candida” for “Cryptococcus”, “an YPD” for “a Sabouraud”

[7] = system: T. interdegitale (TIMM20065 Strain); assay: Test Example 1-7 antimicrobial activity test, minimum inhibitory concentration; assay type: cell-based, Trichophyton interdegitale; settings: Trichophyton, Sabouraud medium, 28° C. for 72 hours
Procedure: (§4) Test Microbial Strains: Trichophyton rubrum (CBS118892 Strain), T. interdegitale (TIMM20065 Strain), Microsporum canis (TIMM20080 Strain), and Arthroderma vanbreuseghemii (TIMM2789)
(§5) Each microbial strain was cultured in a Sabouraud medium containing 500 μg/mL of cycloheximide and 50 μg/mL of chloramphenicol at 28° C. for 8 days, then spores were collected in physiological saline containing Tween80 (polyoxyethylene sorbitan monooleate: manufactured by Kanto Chemical Co., Inc.) (0.05% (v/v)), and this was filtered through a cell strainer (φ40 μm). The spores were recovered from the filtrate by centrifugation (3500 rpm, 5 minutes) and washed twice with physiological saline, and then a spore suspension was prepared (1×10^7 spores/mL). 10 μL of the spore suspension was inoculated into a Sabouraud medium to which compound No. 1 dissolved in DMSO was added to have a predetermined concentration. After culturing at 28° C. for 72 hours, the presence or absence of microbial growth was investigated, and the minimum inhibitory concentration was determined. As a result, the minimum inhibitory concentration of compound No. 1 for each of the four microbial strains was 10 ppm.

[8] = system: Candida albicans (TIMM1768 Strain); assay: Test Example 1-1 antimicrobial activity test, colony formation; assay type: cell-based; settings: at 50 ppm, Sabouraud medium, 37° C. for 48 hours
Procedure: as §3, with “Candida albicans (TIMM1768” for “Cryptococcus neoformans (TIMM1316”, “Candida” for “Cryptococcus”

[9] = system: Arthroderma vanbreuseghemii (TIMM2789); assay: Test Example 1-7 antimicrobial activity test, minimum inhibitory concentration; assay type: cell-based; settings: Trichophyton mentagrophytes, Sabouraud medium, 28° C. for 72 hours
Procedure: as §4, §5

[10] = system: Microsporum canis (TIMM20080 Strain); assay: as above; assay type: cell-based; settings: Sabouraud medium, 28° C. for 72 hours
Procedure: as §4, §5

[11] = system: Trichophyton rubrum (CBS118892 Strain); assay: as above; assay type: cell-based; settings: Sabouraud medium, 28° C. for 72 hours
Procedure: as §4, §5

- MIC [2]: 100 µg/mL (≈ 459 µM)
- MIC [3]: 100 µg/mL (≈ 459 µM)
- MIC [7]: 10 µg/mL (≈ 45.9 µM)
- MIC [9]: 10 µg/mL (≈ 45.9 µM)
- MIC [10]: 10 µg/mL (≈ 45.9 µM)
- MIC [11]: 10 µg/mL (≈ 45.9 µM)
Compound: Cc1ccc(-c2nc(C#N)[nH]c2Cl)cc1 [Compound No. 1, 5-Chloro-4-(4-methylphenyl)-1H-imidazole-2-carbonitrile]
- inhibition at 100 ppm ([1]; at 100 ppm): 98.5%
- inhibition at 200 ppm ([1]; at 200 ppm): 99.9%
- colony formation [4]: completely suppressed colony formation
- inhibition at 100 ppm ([5]; at 100 ppm): 98.1%
- inhibition at 200 ppm ([5]; at 200 ppm): 100%
- colony formation [6]: completely suppressed colony formation
- colony formation [8]: completely inhibited colony formation
